Data: patent publication US20200404914A1, “HERBICIDALLY ACTIVE BICYCLIC BENZAMIDES” (Bayer Aktiengesellschaft, priority 2018, published 2020)

Columns and labels:
[1] = test system: monocotyledonous and dicotyledonous weeds; assay: Post-emergence herbicidal action (greenhouse pot test, visual rating after about 3 weeks); format: in vivo; conditions: for Herbicidal activity ABUTH (Abutilon theophrasti) / Herbicidal activity AMARE (Amaranthus retroflexus) / Herbicidal activity ECHCG (Echinochloa crus-galli) / Herbicidal activity MATIN (Matricaria inodora) / Herbicidal activity SETVI (Setaria viridis) / Herbicidal activity STEME (Stellaria media) / Herbicidal activity VERPE (Veronica persica) / Herbicidal activity VIOTR (Viola tricolor): post-emergence (PO)
Protocol: In the tables below, the following abbreviations are used: Undesired Plants/Weeds: [table] 2. Post-Emergence Herbicidal Action and Crop Plant Compatibility Seeds of monocotyledonous and dicotyledonous weeds and crop plants are placed in sandy loam in plastic or organic planting pots, covered with soil and cultivated in a greenhouse under controlled growth conditions. 2 to 3 weeks after sowing, the test plants are treated at the one-leaf stage. The compounds of the invention, formulated in the form of wettable powders (WP) or as emulsion concentrates (EC), are then sprayed onto the green parts of the plants as aqueous suspension or emulsion with addition of 0.5% additive at a water application rate of […] (converted). After the test plants had been kept in the greenhouse under optimum growth conditions for about 3 weeks, the activity of the preparations is rated visually in comparison to untreated controls. The tables below show the herbicidal activity of numerous compounds according to the invention against important harmful plants. For example, 100% activity=the plants have died, 0% activity=like control plants.

[2] = test system: monocotyledonous and dicotyledonous weed plants; assay: Pre-emergence herbicidal action (greenhouse pot test, visual scoring after about 3 weeks); format: in vivo; conditions: for Herbicidal activity ABUTH (Abutilon theophrasti) / Herbicidal activity AMARE (Amaranthus retroflexus) / Herbicidal activity AVEFA (Avena fatua) / Herbicidal activity CYPES (Cyperus esculentus) / Herbicidal activity ECHCG (Echinochloa crus-galli) / Herbicidal activity MATIN (Matricaria inodora) / Herbicidal activity PHBPU (Ipomoea purpurea) / Herbicidal activity POLCO (Polygonum convolvulus) / Herbicidal activity SETVI (Setaria viridis) / Herbicidal activity STEME (Stellaria media) / Herbicidal activity VERPE (Veronica persica) / Herbicidal activity VIOTR (Viola tricolor): pre-emergence (PE)
Excerpt: In the tables below, the following abbreviations are used: Undesired Plants/Weeds: [table] 1. Pre-Emergence Herbicidal Action and Crop Plant Compatibility Seeds of monocotyledonous and dicotyledonous weed plants and crop plants are placed in plastic or organic planting pots and covered with soil. The compounds of the invention, formulated in the form of wettable powders (WP) or as emulsion concentrates (EC), are then applied onto the surface of the covering soil as aqueous suspension or emulsion with addition of 0.5% additive at a water application rate of […] (converted). After the treatment, the pots are placed in a greenhouse and kept under good growth conditions for the trial plants. After about 3 weeks, the effect of the preparations is scored visually in comparison with untreated controls as percentages. The tables below show the herbicidal activity of numerous compounds according to the invention against important harmful plants. For example, 100% activity=the plants have died, 0% activity=like control plants.

[3] = application rate 80, about 3 weeks
[4] = application rate 320, about 3 weeks
[5] = application rate 20, about 3 weeks
[6] = post-emergence comparative experiment, dosage 80 g/ha
[7] = pre-emergence comparative experiment, dosage 320 g/ha

| SMILES | Herbicidal activity ABUTH (Abutilon theophrasti) [1, 3] [%] | Herbicidal activity AMARE (Amaranthus retroflexus) [1, 3] [%] | Herbicidal activity ECHCG (Echinochloa crus-galli) [1, 3] [%] | Herbicidal activity MATIN (Matricaria inodora) [1, 3] [%] | Herbicidal activity SETVI (Setaria viridis) [1, 3] [%] | Herbicidal activity STEME (Stellaria media) [1, 3] [%] | Herbicidal activity VERPE (Veronica persica) [1, 3] [%] | Herbicidal activity VIOTR (Viola tricolor) [1, 3] [%] | Herbicidal activity ABUTH (Abutilon theophrasti) [2, 4] [%] | Herbicidal activity AMARE (Amaranthus retroflexus) [2, 4] [%] | Herbicidal activity AVEFA (Avena fatua) [2, 4] [%] | Herbicidal activity CYPES (Cyperus esculentus) [2, 4] [%] | Herbicidal activity ECHCG (Echinochloa crus-galli) [2, 4] [%] | Herbicidal activity MATIN (Matricaria inodora) [2, 4] [%] | Herbicidal activity PHBPU (Ipomoea purpurea) [2, 4] [%] | Herbicidal activity POLCO (Polygonum convolvulus) [2, 4] [%] | Herbicidal activity SETVI (Setaria viridis) [2, 4] [%] | Herbicidal activity STEME (Stellaria media) [2, 4] [%] | Herbicidal activity VERPE (Veronica persica) [2, 4] [%] | Herbicidal activity VIOTR (Viola tricolor) [2, 4] [%] | further results |
| --- | --- | --- | --- | --- | --- | --- | --- | --- | --- | --- | --- | --- | --- | --- | --- | --- | --- | --- | --- | --- | --- |
| Cn1nnnc1NC(=O)c1ccc(C(F)(F)F)c2c1OCCC[S+]2[O-] (stereo not drawn) [2-16] | 100 | 100 | 100 | 100 | 90 | 100 | 90 | 100 | 100 | 100 | 80 | 100 | 100 | 100 | 80 | 80 | 100 | 100 | 100 | 100 | – |
| Cn1nnnc1NC(=O)c1ccc(C(F)(F)F)c2c1[S+]([O-])CCCS2 (stereo not drawn) [2-76] | – | – | – | – | – | – | – | – | – | – | – | – | – | – | – | – | – | – | – | – | Herbicidal activity ABUTH (Abutilon theophrasti) [1, 5]: 80%; Herbicidal activity ECHCG (Echinochloa crus-galli) [1, 5]: 90%; Herbicidal activity AMARE (Amaranthus retroflexus) [2, 3]: 90%; Herbicidal activity VIOTR (Viola tricolor) [2, 3]: 90% |
| Cn1nnnc1NC(=O)c1ccc(C(F)(F)F)c2c1OCCCS2 [2-13, 6-(trifluoromethyl)-3,4-dihydro-2H-1,5-benzoxathiepine-N-(1-methyltetrazol-5-yl)-8-carboxamide] | 100 | 100 | 100 | 80 | 100 | 100 | 100 | 100 | 100 | 100 | 100 | 90 | 100 | 100 | 100 | 100 | 100 | 100 | 100 | 100 | Herbicidal action against ABUTH (Abutilon theophrasti) [1, 6]: 100%; Herbicidal action against ALOMY (Alopecurus myosuroides) [1, 6]: 90%; Herbicidal action against AVEFA (Avena fatua) [1, 6]: 100%; Herbicidal action against PHPBU [1, 6]: 90%; Herbicidal action against POLCO (Polygonum convolvulus) [1, 6]: 80%; herbicidal activity compared to that of compound No. A-117 ([1]; post-emergence, comparative experiment, numerous harmful plants): superiority of the compound according to the invention was demonstrated clearly; Herbicidal action against ABUTH (Abutilon theophrasti) [2, 7]: 100%; Herbicidal action against ALOMY (Alopecurus myosuroides) [2, 7]: 100%; Herbicidal action against AVEFA (Avena fatua) [2, 7]: 100%; Herbicidal action against MATIN (Matricaria inodora) [2, 7]: 100%; Herbicidal action against SETVI (Setaria viridis) [2, 7]: 100%; herbicidal activity compared to that of compound No. A-117 ([2]; pre-emergence, comparative experiment, numerous harmful plants): superiority of the compound according to the invention was demonstrated clearly |
| Cn1nnnc1NC(=O)c1ccc(C(F)(F)F)c2c1SCCCS2 [2-5] | – | – | – | – | – | – | – | – | – | – | – | – | – | – | – | – | – | – | – | – | Herbicidal activity ABUTH (Abutilon theophrasti) [1, 5]: 90%; Herbicidal activity AMARE (Amaranthus retroflexus) [1, 5]: 90%; Herbicidal activity ECHCG (Echinochloa crus-galli) [1, 5]: 90%; Herbicidal activity VIOTR (Viola tricolor) [1, 5]: 80%; Herbicidal activity ABUTH (Abutilon theophrasti) [2, 3]: 100%; Herbicidal activity AMARE (Amaranthus retroflexus) [2, 3]: 100%; Herbicidal activity ECHCG (Echinochloa crus-galli) [2, 3]: 100%; Herbicidal activity MATIN (Matricaria inodora) [2, 3]: 100%; Herbicidal activity STEME (Stellaria media) [2, 3]: 100%; Herbicidal activity VERPE (Veronica persica) [2, 3]: 100%; Herbicidal activity VIOTR (Viola tricolor) [2, 3]: 100% |
| Cn1nnnc1NC(=O)c1ccc(C(F)(F)F)c2c1OCCCS2(=O)=O [2-19] | 100 | 100 | 100 | 90 | 90 | 100 | 100 | 100 | 100 | 100 | 80 | 100 | 100 | 100 | 100 | 90 | 100 | 100 | 100 | 100 | – |
